Tests used:
colon of adult rats = conditions: 1 ml of 5% into descending colon at 8 weeks; tested after 4 weeks; 50-80 mm Hg; vs saline
Method: For neonatal sensitization, rats were obtained as litters of 4 days old pups. […] To treat neonatal rats with capsaicin, ten day old rat pups received an infusion of 0.2 mls of 50 mg/ml capsaicin or 0.2 mls vehicle: 10% ethanol, 10% Tween 20, 80% saline or were left unmanipulated. Visceral sensitivity and inflammatory parameters were measured in these rats between 8 and 12 weeks of age. […] After 4 weeks, rats were tested for sensitivity to colorectal distention.
The abdominal withdrawal reflex represents a characteristic set of behaviors produced by involuntary motor reflexes that are activated by colorectal distention. Visceral hypersensitivity was measured by grading the response of rats to colorectal distention as previously described.^11 Briefly, under mild sedation with 1% Brevital (Eli Lily & Co Indianapolis, Ind.) 25 mg/kg i.p.), a flexible balloon (5 cm) constructed from a surgical glove finger attached to a tygon tubing was inserted 8 cm into the descending colon and rectum via the anus and held in place by taping the tubing to the tail. Rats were placed in small Lucite cubicles (20×8×8 cm) (Bioengineering Department, UTMB) and were allowed to adapt for 30 minutes. CRD was performed by rapidly inflating the balloon to constant pressure. Pressure was measured using a sphygmomanometer connected to a pressure transducer. […]

colon of P10 rats = conditions: 0.5% into colon at P10, vs saline
Method: To treat neonatal rats with capsaicin, ten day old rat pups received an infusion of 0.2 mls of 50 mg/ml capsaicin or 0.2 mls vehicle: 10% ethanol, 10% Tween 20, 80% saline or were left unmanipulated. Visceral sensitivity and inflammatory parameters were measured in these rats between 8 and 12 weeks of age. […] After 4 weeks, rats were tested for sensitivity to colorectal distention.
Visceral hypersensitivity was measured by grading the response of rats to colorectal distention as previously described.^11 Briefly, under mild sedation with 1% Brevital (Eli Lily & Co Indianapolis, Ind.) 25 mg/kg i.p.), a flexible balloon (5 cm) constructed from a surgical glove finger attached to a tygon tubing was inserted 8 cm into the descending colon and rectum via the anus and held in place by taping the tubing to the tail. […] Pressure was measured using a sphygmomanometer connected to a pressure transducer. […] Behavioral responses to colorectal distention were measured by visual observation of the abdominal withdrawal reflex by blinded observer and the assignment of an AWR score as follows: 1=Normal behavior without response 2=Contraction of abdominal muscles; 3=Lifting of abdominal wall; 4=Body arching and lifting of pelvic structures. […]
Data is expressed as mean+/−standard error of the mean (SE).

TRPV1 = test system: TRPV1
Method: Tissues for western blot or RNA extraction were immediately frozen on dry ice and were stored at −80 until further analysis. Tissues were homogenized in extract buffer; 1% NP40, 10% glycerol, 20 mM Tris HCl […], 100 mM NaCl, 50 mM NaF, 2 mM EDTA, 1 mM EGTA, 25 mM b-glycerophosphate, 2 mM sodium pyrophosphate, 1 mM sodium orthovanadate, 1 mM phenylmethylsulfonyl fluoride and Protease Inhibitor Cocktail, 1/100 (Sigma). Proteins were resolved on 7.5% SDS-PAGE gels, transferred to PVDF membranes (BioRad), and incubated with an anti-TRPV1 antibody (PC420, Invitrogen) at 1/500. Bound antibodies were detected by ECL kit (Amersham Pharmacia Biotech, Piscataway, N.J.). The membranes were exposed to X-ray films and subsequently stripped and re-probed with a b-III-tubulin antibody (1/1000, Promega). Films were converted to TIFF image files using a HP scanner, and the TRPV1 and b-III-tubulin bands were quantified using OptiQuant software (Packard). Data was expressed as the ratio of TRPV1 to b-III-tubulin band intensity.
RNA was extracted from frozen DRG using Triozol (Invitrogen). Starting with […] of RNA, two-step quantitative RT-PCR was performed using Applied Biosystems reagents and kits. The following forward and reverse primer and probe sequences were used: TRPV1: […] (SEQ ID NO: 2), […] (SEQ ID NO: 3); b-III-tubulin: […] (SEQ ID NO: 4), […] (SEQ ID NO: 5), […] (SEQ ID NO: 6). TAQMAN PCR was performed on an Applied Biosystems 5700. Relative changes in TRPV1 mRNA levels were calculated by the DDCt method using b-III-tubulin as a normalizer. No RT reactions were performed as controls.
The lipid soluble fluorescent dye, DiI (1,1′-dioleyl-3,3,3′,3-tetramethylindocarbocyanine methanesulfonate, Invitrogen), 25 mg in 0.5 ml methanol, was injected in 2 μl volumes at 8-10 sites on the exposed colon from the level of the bladder to 6 cm oral. After one to two weeks, rats were perfused transcardially with 150 ml phosphate buffered saline (PBS) followed by 400 ml ice cold 4% paraformaldehyde in PBS. Dorsal root ganglia, T12 to S2 were removed and were post-fixed one hour in PFA and cryoprotected overnight in 20% sucrose in PBS. 10 micron sections on plus slides were incubated sequentially with TRPV1 antibody (PC420, Invitrogen, 1/200) and then with anti-rabbit Alexa Fluor 488 (Invitrogen, 1/200). Sections were viewed using a BX60 Olympus microscope equipped with filter cubes appropriate for DiI (Rhodamine filter) and appropriate band pass and barrier filter for Alexa-488. Images were captured and were analyzed using Metaview software. To ensure that a neuron is counted only once, serial sections were placed on consecutive slides with at least 50 microns between sections on the same slide.
To determine whether TRPV1 expression was altered in adult rats that were sensitized with acetic acid as neonates, TRPV1 expression in DRG containing colon afferents and in the spinal cord was measured.
TRPV1 and BDNF mRNA expression was measured in S1 DRG isolated from adult rats that were treated with acetic acid or saline as neonates by quantitative RT-PCR. […] To increase the sensitivity and specificity of this gene expression assay, measurements will be made in colon afferent neurons identified by uptake of the retrograde label fluorogold and isolated by laser capture microdissection (LCM) (FIG. 11).

MAPK = conditions: pups one hour after infusion
Method: To determine whether acetic acid infusion of the colons of 10 days old pups activated MAPK in DRG containing soma of colon afferents, combined lumbar/sacral (LS) and thoracolumbar (TL) DRG from 4 pups/treatment group were assayed for p-p38 or ERK (p-p42/p-p44) content by western blot 1 hour after acetic acid infusion. Cervical (CE) DRG from the same animals were examined as an internal control for specificity of stimulation.

colon DRG neurons = test system: colon DRG neurons
Method: To determine whether the sensitivity of colon DRG neurons was altered in eight weeks old rats in this model, action potential threshold (rheobase) and firing frequency of acutely dissociated lumbar/sacral (LS), and thoracolumbar (TL) colon DRG neurons, identified by the presence of the retrograde label DiI, were measured in current clamp experiments.

colon = conditions: rat, in vivo
Method: Colons were divided into proximal, middle and distal segments; portions of each segment were placed in 10% buffered formalin and portions were frozen in liquid nitrogen. Haematoxilin & Eosin stained parafin sections were scored for inflammation by a pathologist as described.^21 Myeloperoxidase (MPO) assays were performed as described.^22 Protein was measured by the BCA method (Pierce, Rockford, Ill.). Activity was expressed as the change in absorbance/min/mg protein. Cytokine levels were measured in colon extracts using the Biorad Bioplex assay procedure and normalized to protein.
To rule out the possibility that the sensitizing effects of neonatal acetic acid exposure were due to inflammation/injury of the colon, the colons of P10 pups were examined.
To determine whether persistent hypersensitivity achieved in neonatal acetic acid treated rats was due to the development of a chronic colitis in adult, H&E stained sections of the colons of 8 weeks old adult rats were examined for histopathological signs of inflammation, myoloperoxidase (MPO) activity and inflammatory cytokine levels. […] Since mast cells can affect both motility and sensitivity, mast cells in proximal, middle and distal colon were counted.

[1] = adult rats sensitized as neonates vs controls
[2] = quantitative RT-PCR, vs P10 saline

With `CC(=O)O` [acetic acid] the “AWR grades in response to colorectal distention” value (colon of adult rats) was “No significant differences”, the “EMG activity in response to graded colorectal distention” value (colon of P10 rats; adult, 40 and 60 mm Hg) was “significantly higher” and the “AWR scores in response to colorectal distention” value (colon of P10 rats; tested at 8 weeks) was “higher mean AWR scores at all distention pressures”. The “TRPV1 protein expression in the spinal cord” value (TRPV1; adult rats sensitized as neonates) was “No change”, the “TRPV1 mRNA in TL DRG” value (TRPV1; [1]) was “no change” and the “TRPV1 mRNA increase in LS DRG” value (TRPV1; [1]) was 1.9 fold. For the same molecule, the “TRPV1 protein expression in whole DRG extracts” value (TRPV1; both TL and LS DRG, adult rats sensitized as neonates) was “significantly increased”, the “colon DRG neurons (DiI) expressing TRPV1 immunoreactivity, LS DRG” value (TRPV1; control 38.8%) was 54.0% and the “colon DRG neurons (DiI) expressing TRPV1 immunoreactivity, TL DRG” value (TRPV1; control 40.6%) was 67.3%. For the same molecule, the “BDNF mRNA expression increase in S1 DRG” value (TRPV1; [2]) was 1.9 fold, the “TRPV1 mRNA expression increase in S1 DRG” value (TRPV1; [2]) was 1.9 fold and the “p-p38 in TL or CE DRG” value (MAPK) was “No large changes”. The “p-p42 in LS DRG” value (MAPK) was “no change”, the “p-p44 in LS DRG” value (MAPK) was “seven-fold increase” and the “p-ERK increase in TL DRG” value (MAPK; also seen with saline) was 3-5 fold. For the same molecule, the “p-p38 in LS DRG” value (MAPK; vs saline and unmanipulated) was “three-fold increase”, the “average rheobase, TL colon DRG neurons” value (colon DRG neurons; 8 weeks old rats treated at P10, control 0.47) was 0.29 nA and the “average rheobase, LS colon DRG neurons” value (colon DRG neurons; 8 weeks old rats treated at P10, control 0.56) was 0.21 nA. The “number of action potentials elicited by current injection at 2x the rheobase, LS neurons” value (colon DRG neurons; control 1.2) was 1.8, the “IFN-g in proximal colon, relative to saline” value (colon) was 1.5 fold and the “MPO activity in proximal, middle and distal colon” value (colon) was “no significant increases in activity”. The “MPO values in colon of pups” value (colon) was “not significantly different”, the “histology of colon of pups” value (colon) was “No histological signs of inflammation or tissue destruction” and the “histopathological examination of adult colon” value (colon) was “no evidence of inflammation or abnormalities in structure”. The “levels of pro-inflammatory cytokines (IL-1b, IL-1a, IL-2, IL-6, TNF-a, IFN-g)” value (colon) was “no significant differences”, the “mast cell counts, distal colon” value (colon) was 9.3 SE 4.1 number of mast cells per high-powered field and the “mast cell counts, middle colon” value (colon) was 7.7 SE 1.2 number of mast cells per high-powered field. The “mast cell counts, proximal colon” value (colon) was 6.3 SE 3.4 number of mast cells per high-powered field.
